This is an account of results in PMC6586855, “Orobol, an Enzyme-Convertible Product of Genistein, exerts Anti-Obesity Effects by Targeting Casein Kinase 1 Epsilon” (Scientific Reports, 2019).

The target of one assay is T1, MNK1 (Homo sapiens, UniProt Q9BUB5).
T1 construct: gene MKNK1; Reaction Biology kinase panel
Description: […]-ATP kinase assay, P81 filter binding. The assay is classed as biochemical.

For the next assay, the target named is T2, KHS/MAP4K5 (Homo sapiens, UniProt Q9Y4K4).
T2 construct: Reaction Biology kinase panel
Description: […]-ATP kinase assay, P81 filter binding. Format: biochemical.

A further assay has as its target T3, TNIK (Homo sapiens, UniProt Q9UKE5).
T3 construct: Reaction Biology kinase panel
Description: […]-ATP kinase assay, P81 filter binding. Format: biochemical.

The target of another assay is T4, PI3Kγ (Homo sapiens, UniProt P48736).
T4 construct: gene PIK3CG; commercial kinase
T4 sequence (P48736 whole entry): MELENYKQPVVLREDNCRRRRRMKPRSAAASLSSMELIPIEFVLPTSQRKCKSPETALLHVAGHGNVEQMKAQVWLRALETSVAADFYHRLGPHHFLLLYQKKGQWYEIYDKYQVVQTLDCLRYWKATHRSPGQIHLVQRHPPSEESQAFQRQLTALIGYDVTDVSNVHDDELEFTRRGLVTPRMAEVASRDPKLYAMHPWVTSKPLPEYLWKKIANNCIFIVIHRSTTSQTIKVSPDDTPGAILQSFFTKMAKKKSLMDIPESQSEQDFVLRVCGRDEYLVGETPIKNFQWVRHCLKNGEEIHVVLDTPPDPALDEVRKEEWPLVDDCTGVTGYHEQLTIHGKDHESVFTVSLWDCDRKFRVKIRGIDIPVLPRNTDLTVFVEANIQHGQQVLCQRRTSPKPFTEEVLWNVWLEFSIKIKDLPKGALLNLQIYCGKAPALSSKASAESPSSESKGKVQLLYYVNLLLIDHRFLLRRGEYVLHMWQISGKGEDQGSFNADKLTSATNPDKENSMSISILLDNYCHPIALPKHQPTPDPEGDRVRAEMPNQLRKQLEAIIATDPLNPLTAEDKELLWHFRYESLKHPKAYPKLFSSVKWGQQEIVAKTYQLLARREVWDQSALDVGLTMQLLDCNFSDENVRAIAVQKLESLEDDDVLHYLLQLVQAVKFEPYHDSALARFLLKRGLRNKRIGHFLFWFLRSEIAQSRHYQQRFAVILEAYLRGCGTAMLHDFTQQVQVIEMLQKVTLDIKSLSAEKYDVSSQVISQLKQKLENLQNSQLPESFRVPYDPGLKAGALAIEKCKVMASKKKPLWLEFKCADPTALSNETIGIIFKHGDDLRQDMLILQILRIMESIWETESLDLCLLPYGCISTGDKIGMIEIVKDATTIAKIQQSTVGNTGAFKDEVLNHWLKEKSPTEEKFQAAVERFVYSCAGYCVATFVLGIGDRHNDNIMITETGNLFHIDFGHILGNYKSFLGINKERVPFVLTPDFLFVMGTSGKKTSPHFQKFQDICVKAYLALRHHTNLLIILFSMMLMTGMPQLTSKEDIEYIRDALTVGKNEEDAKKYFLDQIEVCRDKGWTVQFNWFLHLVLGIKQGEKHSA
The assay is described as follows: kinase inhibition assay. Format: biochemical. From the text:
kinase inhibition assay on PI3Kγ

Assay [1] deals with T5, CK1ε (Homo sapiens, UniProt P49674).
T5 construct: gene CSNK1E; commercial active kinase; Reaction Biology panel for activity, SignalChem protein for pull-down
T5 sequence (P49674 whole entry): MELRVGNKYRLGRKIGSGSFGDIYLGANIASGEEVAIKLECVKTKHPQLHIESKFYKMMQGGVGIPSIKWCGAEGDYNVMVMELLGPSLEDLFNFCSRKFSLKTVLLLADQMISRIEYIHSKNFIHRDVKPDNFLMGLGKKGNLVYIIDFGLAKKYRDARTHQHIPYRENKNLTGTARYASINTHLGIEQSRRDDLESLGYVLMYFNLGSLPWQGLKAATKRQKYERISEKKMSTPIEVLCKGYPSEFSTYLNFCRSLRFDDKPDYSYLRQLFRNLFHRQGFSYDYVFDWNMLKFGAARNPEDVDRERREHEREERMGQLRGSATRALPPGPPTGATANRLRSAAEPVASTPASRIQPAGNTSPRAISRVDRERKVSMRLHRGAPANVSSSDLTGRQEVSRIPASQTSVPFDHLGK
Description: […]-ATP kinase assay, P81 filter binding. The assay is classed as biochemical.

A further assay deals with T6, KDR/VEGFR2 (Homo sapiens, UniProt P35968).
T6 construct: Reaction Biology kinase panel
The assay is described as follows: […]-ATP kinase assay, P81 filter binding. Format: biochemical.

The next assay concerns the target T7, PI3Kβ (Homo sapiens, UniProt P42338).
T7 construct: gene PIK3CB; commercial kinase; with Phosphatidylinositol 3-kinase regulatory subunit alpha
The assay is described as follows: kinase inhibition assay. Format: biochemical. From the text:
kinase inhibition assay on PI3Kβ

Another assay concerns the target T8, PBK/TOPK (Homo sapiens, UniProt Q96KB5).
T8 construct: Reaction Biology kinase panel
T8 sequence (Q96KB5 1-322): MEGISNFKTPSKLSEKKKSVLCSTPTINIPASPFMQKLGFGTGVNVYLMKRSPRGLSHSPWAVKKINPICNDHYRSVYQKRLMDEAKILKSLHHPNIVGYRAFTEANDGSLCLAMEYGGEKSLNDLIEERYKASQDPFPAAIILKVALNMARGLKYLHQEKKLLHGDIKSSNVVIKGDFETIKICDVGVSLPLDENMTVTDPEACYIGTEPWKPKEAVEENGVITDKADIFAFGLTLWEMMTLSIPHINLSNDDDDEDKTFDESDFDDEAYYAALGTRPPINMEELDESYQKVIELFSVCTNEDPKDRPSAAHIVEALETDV
Description: […]-ATP kinase assay, P81 filter binding. Format: biochemical.

A further assay addresses T9, CDK5/p25 (Homo sapiens, UniProt Q00535).
T9 construct: Reaction Biology kinase panel; complex with p25, the C-terminal fragment of p35
Description: […]-ATP kinase assay, P81 filter binding. Format: biochemical.

The target of a further assay is T10, RON/MST1R (Homo sapiens, UniProt Q04912).
T10 construct: Reaction Biology kinase panel
T10 sequence (Q04912 979-1400 limits assumed): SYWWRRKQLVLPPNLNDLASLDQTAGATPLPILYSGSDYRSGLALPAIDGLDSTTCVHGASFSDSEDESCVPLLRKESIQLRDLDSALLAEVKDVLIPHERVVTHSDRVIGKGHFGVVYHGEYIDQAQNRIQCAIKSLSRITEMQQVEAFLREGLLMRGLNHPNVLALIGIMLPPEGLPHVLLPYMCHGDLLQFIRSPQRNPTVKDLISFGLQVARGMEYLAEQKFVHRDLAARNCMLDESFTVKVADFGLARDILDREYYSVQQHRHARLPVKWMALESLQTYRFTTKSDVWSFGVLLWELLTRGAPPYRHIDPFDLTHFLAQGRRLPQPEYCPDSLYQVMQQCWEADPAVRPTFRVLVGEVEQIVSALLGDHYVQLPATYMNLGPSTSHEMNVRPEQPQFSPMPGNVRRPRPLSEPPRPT
Description: […]-ATP kinase assay, P81 filter binding. Format: biochemical.

Another assay concerns the target T11, PI3Kδ (Homo sapiens, UniProt O00329).
T11 construct: gene PIK3CD; commercial kinase; with Phosphatidylinositol 3-kinase regulatory subunit alpha
The assay is described as follows: kinase inhibition assay. The assay is classed as biochemical. From the text:
kinase inhibition assay on PI3Kδ

The target of the next assay is T12, NEK6 (Homo sapiens, UniProt Q9HC98).
T12 construct: Reaction Biology kinase panel
T12 sequence (Q9HC98 whole entry): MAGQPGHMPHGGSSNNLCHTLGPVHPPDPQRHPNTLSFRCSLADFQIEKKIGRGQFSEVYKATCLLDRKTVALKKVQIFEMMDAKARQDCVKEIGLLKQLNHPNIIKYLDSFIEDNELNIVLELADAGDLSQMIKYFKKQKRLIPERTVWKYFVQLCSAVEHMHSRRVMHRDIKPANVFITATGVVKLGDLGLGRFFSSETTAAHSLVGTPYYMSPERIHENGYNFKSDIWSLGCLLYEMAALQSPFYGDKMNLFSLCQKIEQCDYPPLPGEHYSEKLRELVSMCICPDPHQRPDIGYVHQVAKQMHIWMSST
Description: […]-ATP kinase assay, P81 filter binding. The assay is classed as biochemical.

The target in a further assay is T13, PI3Kα (Homo sapiens, UniProt P42336).
T13 construct: gene PIK3CA; commercial kinase; with Phosphatidylinositol 3-kinase regulatory subunit alpha
T13 sequence (P42336 whole entry): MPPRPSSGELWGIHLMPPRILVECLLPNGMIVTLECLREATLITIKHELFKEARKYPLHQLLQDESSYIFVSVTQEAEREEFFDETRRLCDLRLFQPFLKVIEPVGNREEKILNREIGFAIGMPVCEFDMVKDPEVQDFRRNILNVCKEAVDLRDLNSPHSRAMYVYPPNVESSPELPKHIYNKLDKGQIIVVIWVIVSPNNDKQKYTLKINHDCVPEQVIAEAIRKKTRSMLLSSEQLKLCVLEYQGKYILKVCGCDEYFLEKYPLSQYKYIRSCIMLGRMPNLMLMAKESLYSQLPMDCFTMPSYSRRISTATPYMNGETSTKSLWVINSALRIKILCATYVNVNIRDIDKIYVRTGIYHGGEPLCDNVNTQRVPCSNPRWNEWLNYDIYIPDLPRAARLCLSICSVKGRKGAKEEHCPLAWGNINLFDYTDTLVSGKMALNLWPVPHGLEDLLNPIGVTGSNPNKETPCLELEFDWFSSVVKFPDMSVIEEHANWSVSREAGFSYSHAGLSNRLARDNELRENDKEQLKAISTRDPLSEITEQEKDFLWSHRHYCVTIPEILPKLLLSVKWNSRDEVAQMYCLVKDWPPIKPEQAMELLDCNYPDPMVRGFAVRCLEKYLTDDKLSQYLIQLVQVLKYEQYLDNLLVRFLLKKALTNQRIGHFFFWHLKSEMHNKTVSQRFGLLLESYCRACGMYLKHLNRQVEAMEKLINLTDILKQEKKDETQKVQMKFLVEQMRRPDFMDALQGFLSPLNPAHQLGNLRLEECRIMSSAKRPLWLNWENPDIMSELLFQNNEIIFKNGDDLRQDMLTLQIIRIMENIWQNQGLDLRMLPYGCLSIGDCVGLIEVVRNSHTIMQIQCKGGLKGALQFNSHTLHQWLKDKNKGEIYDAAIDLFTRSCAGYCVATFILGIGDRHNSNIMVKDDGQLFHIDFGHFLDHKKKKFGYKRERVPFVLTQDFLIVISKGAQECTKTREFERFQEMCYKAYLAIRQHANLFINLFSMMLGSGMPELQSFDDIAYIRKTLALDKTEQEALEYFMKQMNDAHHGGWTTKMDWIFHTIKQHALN
T13 sequence (P27986 2-724 partner): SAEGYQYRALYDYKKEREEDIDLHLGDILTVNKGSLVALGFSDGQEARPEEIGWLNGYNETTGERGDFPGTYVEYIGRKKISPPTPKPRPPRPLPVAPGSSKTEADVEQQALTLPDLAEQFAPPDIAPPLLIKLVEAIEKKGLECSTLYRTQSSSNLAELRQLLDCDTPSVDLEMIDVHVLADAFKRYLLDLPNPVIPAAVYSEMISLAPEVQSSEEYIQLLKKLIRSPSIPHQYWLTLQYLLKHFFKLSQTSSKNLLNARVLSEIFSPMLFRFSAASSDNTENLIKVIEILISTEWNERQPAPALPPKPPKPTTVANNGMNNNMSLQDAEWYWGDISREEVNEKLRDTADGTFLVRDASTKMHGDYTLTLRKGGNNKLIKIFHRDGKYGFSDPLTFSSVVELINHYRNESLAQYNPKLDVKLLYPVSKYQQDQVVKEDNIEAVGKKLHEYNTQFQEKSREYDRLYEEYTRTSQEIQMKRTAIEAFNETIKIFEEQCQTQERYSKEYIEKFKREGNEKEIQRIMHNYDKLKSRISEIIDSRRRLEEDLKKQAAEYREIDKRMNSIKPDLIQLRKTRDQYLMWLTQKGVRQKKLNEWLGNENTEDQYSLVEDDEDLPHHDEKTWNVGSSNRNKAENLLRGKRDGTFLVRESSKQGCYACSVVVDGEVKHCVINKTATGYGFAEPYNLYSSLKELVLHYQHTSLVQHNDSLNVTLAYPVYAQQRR
Description: kinase inhibition assay. Format: biochemical. From the text: kinase inhibition assay on PI3Kα

The target in another assay is T14, MUSK (Homo sapiens, UniProt O15146).
T14 construct: Reaction Biology kinase panel
T14 sequence (O15146 517-869 limits assumed): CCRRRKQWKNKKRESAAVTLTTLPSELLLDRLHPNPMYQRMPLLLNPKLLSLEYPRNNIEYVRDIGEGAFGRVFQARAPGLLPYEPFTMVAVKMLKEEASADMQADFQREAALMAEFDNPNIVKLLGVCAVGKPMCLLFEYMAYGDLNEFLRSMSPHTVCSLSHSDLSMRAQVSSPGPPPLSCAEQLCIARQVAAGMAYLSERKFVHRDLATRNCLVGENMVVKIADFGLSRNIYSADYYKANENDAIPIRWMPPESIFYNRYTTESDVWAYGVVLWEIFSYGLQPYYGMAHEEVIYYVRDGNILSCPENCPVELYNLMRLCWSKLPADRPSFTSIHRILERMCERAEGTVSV
Description: […]-ATP kinase assay, P81 filter binding. The assay is classed as biochemical.

For assay [2], the target named is T5, CK1ε. Description: pull-down on orobol-Sepharose 4B beads, immunoblot. The assay is classed as binding. The settings on record: orobol coupled to beads; pH 7.5, 4 °C; competed by ATP. Background: A western blot detects proteins with antibodies after separation by electrophoresis.
The target in assay [3] is T15, CK1ε (Mus musculus, UniProt Q9JMK2).
T15 construct: gene Csnk1e; endogenous protein in 3T3-L1 preadipocyte lysate, detected with anti-CK1ε antibody
T15 sequence (Q9JMK2 1-416): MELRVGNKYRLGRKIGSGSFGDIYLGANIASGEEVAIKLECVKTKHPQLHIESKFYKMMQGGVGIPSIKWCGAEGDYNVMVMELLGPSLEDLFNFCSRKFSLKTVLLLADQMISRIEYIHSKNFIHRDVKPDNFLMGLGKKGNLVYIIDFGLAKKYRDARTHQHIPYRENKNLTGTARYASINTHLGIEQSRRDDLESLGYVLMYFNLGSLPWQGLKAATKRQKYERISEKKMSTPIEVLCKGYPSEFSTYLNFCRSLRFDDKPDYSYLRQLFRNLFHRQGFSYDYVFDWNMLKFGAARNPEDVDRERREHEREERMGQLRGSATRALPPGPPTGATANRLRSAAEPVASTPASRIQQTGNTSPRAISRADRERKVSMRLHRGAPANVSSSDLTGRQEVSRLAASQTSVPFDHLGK
The assay is described as follows: pull-down from 3T3-L1 lysate on orobol-Sepharose 4B beads, immunoblot. Format: biochemical. Conditions: orobol coupled to beads; pH 7.5, 4 °C.

T11 sequence (O00329 whole entry): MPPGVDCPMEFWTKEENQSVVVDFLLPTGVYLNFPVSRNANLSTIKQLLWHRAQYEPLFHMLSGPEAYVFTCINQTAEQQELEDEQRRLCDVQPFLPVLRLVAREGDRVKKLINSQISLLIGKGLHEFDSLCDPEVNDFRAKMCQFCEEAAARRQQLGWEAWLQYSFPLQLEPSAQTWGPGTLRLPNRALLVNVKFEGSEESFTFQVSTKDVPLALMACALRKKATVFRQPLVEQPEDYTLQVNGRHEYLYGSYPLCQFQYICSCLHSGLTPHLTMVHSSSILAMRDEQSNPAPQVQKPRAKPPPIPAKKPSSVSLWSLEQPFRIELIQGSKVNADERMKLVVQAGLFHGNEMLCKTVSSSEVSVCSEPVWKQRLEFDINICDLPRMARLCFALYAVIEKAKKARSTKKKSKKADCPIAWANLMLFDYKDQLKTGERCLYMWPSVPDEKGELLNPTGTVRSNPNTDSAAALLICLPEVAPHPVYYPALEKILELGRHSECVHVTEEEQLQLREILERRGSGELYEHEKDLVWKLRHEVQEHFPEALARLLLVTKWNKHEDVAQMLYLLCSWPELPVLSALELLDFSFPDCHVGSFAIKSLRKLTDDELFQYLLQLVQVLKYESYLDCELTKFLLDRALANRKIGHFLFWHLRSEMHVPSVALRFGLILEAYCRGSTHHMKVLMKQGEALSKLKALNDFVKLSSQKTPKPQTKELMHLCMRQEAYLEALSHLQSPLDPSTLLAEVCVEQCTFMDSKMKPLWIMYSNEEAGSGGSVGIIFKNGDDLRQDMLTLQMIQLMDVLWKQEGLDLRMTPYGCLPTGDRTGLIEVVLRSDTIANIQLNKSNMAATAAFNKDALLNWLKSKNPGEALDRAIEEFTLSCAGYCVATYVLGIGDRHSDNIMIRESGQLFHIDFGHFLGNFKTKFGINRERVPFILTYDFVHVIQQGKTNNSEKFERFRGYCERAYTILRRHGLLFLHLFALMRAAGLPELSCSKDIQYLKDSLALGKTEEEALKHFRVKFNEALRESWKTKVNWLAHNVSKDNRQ
T11 sequence (P27986 2-724 partner): as the sequence (P27986 2-724 partner) above

Broadly, the IC50 is the concentration that gives 50% inhibition. A high value points to weaker potency. For the molecule `O=c1c(-c2ccc(O)c(O)c2)coc2cc(O)cc(O)c12` [orobol], the IC50 at MNK1 is 2130 nM; on KHS/MAP4K5, 1420 nM; at TNIK it was 1540 nM; against PI3Kγ, 4760 nM; at CK1ε [1], 1240 nM; on KDR/VEGFR2, 4450 nM. Further, the IC50 at PI3Kβ is 5440 nM; on PBK/TOPK, 1670 nM; at PI3Kδ, 5270 nM; against PI3Kα, 3460 nM; at MUSK, 1480 nM. The figures for the activity at 1 µM at CDK5/p25, on RON/MST1R and at NEK6 were 78%, 78% and 79%, respectively. For the same molecule, the “pull-down on orobol-Sepharose 4B beads, immunoblot” value on CK1ε [2] is “The CK1ε kinase bound to orobol–sepharose 4B beads, but not to control sepharose 4B beads”. Moreover, at CK1ε [3], the “pull-down from 3T3-L1 lysate on orobol-Sepharose 4B beads, immunoblot” value is “Orobol directly interacts with CK1ε in 3T3-L1 cell lysates”.
